The term Ki denotes a measure of affinity in units of concentration, obtained from inhibition or displacement.

The target in one assay is trypsin. The experiment in a line: inhibition of the amidolytic activity of trypsin (chromogenic substrate S-2251). It is filed as biochemical. The settings on record: substrate S-2251, 200 and 750 μM, otherwise analogous to thrombin.
The target of the next assay is human thrombin (Homo sapiens, UniProt P00734). The experiment in a line: inhibition of the amidolytic activity of thrombin (chromogenic substrate S-2238). The assay is classed as biochemical. The settings on record: for Ki: human thrombin 0.5 nM, substrate S-2238, pH 7.8, room temperature; for q (ratio of the inhibition of trypsin to the inhibition of thrombin): specificity: Ki trypsin / Ki thrombin. As for the experimental part: A differential inhibition of thrombin and other serine proteases by the above compounds is desirable in order to obtain compounds having as high a specificity as possible and at the same time to avoid possible side-effects.
Specific chromogenic peptide substrates can be used to determine the inhibition of the catalytic activity of the above proteases. The inhibition of the amidolytic activity of thrombin and trypsin by the above guanidines was determined as described hereinafter.
The measurements were carried out on microtitre plates at room temperature. For this, in each well of the plate 150 μl of buffer (50 mM Tris, 100 mM NaCl, 0.1% polyethylene glycol; pH 7.8) were mixed with 50 μl of the inhibitor dissolved in DMSO and diluted in the buffer, and 25 μl of human thrombin (0.5 nM final conc.) were added. After incubation for 10 minutes the reaction was started by the addition of chromogenic substrate S-2238 (H-D-Phe-Pip-Arg-paranitroaniline from Kabivitrum; 10 or 50 μm final conc.) and the hydrolysis of the substrate was followed spectrophotometrically on a kinetic microtiter plate reader for 5 minutes. After graphical presentation of the inhibition curves the Ki values were determined according to the method described in Blochem. J. 55, 1955, 170-171.

Molecules are shown by their SMILES.

`CCOC(=O)CN(C(=O)[C@H](CC(=O)NC[C@@H]1CCCN(C(=N)N)C1)NC(=O)OCc1ccccc1)C1CC1` [Example 1, ethyl [[(S)-3-[(S)-1-(amino-imino-methyl)-piperidin-3-ylmethylcarbamoyl]-2-benzyloxycarbonylamino-propionyl]-cyclopropyl-amino]-acetate] came in with a Ki on trypsin of 70 µM. Moreover, at human thrombin, the Ki amounted to 1.2 µM and the “q (ratio of the inhibition of trypsin to the inhibition of thrombin)” value is recorded as 58.
The like results for `CCOC(=O)CCN(C(=O)[C@H](CC(=O)NC[C@@H]1CCCN(C(=N)N)C1)NC(=O)OCc1ccccc1)C1CC1` [Example 2a, Ethyl 3-[[(S)-3-[(S)-1-(amino-imino-methyl)-piperidin-3-ylmethylcarbamoyl]-2-benzyloxycarbonylamino-propionyl]-cyclopropylamino]-propionate] were, in that order, 29 µM, 0.017 µM and 1706.
The like results for `CCCCN(CC(=O)OCC)C(=O)[C@H](CC(=O)NC[C@@H]1CCCN(C(=N)N)C1)NC(=O)OCc1ccccc1` [Example 2b, ethyl [[(S)-3-[(S)-1-(amino-imino-methyl)-piperidin-3-ylmethylcarbamoyl]-2-benzyloxycarbonylamino-propionyl]-butyl-amino]acetate] were, in that order, 56 µM, 0.61 µM and 92.
For `CCCCN(CCC(=O)OCC)C(=O)[C@H](CC(=O)NC[C@@H]1CCCN(C(=N)N)C1)NC(=O)OCc1ccccc1` [Example 2c, ethyl 3-[[(S)-3-[(S)-1-(amino-imino-methyl)-piperidin-3-ylmethylcarbamoyl]-2-benzyloxycarbonylamino-propionyl]-butylamino]-propionate] the same measures were 30 µM, 0.077 µM and 390.
Take `N=C(N)N1CCC[C@@H](CNC(=O)C[C@H](NC(=O)OCc2ccccc2)C(=O)N(CC(=O)O)C2CC2)C1` [Example 3, [[(S)-3-[(S)-1-(amino-imino-methyl)-piperidin-3-ylmethylcarbamoyl]-2-benzyloxycarbonylamino-propionyl]-cyclopropylamino]-acetic acid]: the inhibition constant Ki at trypsin is 19 µM. Further, at human thrombin, affinity was put at a Ki of 0.012 µM and the “q (ratio of the inhibition of trypsin to the inhibition of thrombin)” value was determined as 1583.
For `N=C(N)N1CCC[C@@H](CNC(=O)C[C@H](NC(=O)OCc2ccccc2)C(=O)N(CCC(=O)O)C2CC2)C1` [Example 4a, 3-[[(S)-3-[(S)-1-(Amino-imino-methyl)-piperidin-3-ylmethylcarbamoyl]-2-benzyloxycarbonylamino-propionyl]-cyclopropylamino]-propionic acid] the same measures were 83 µM, 0.079 µM and 1051.
For the molecule `CCCCN(CC(=O)O)C(=O)[C@H](CC(=O)NC[C@@H]1CCCN(C(=N)N)C1)NC(=O)OCc1ccccc1` [Example 4b, [[(S)-3-[(S)-1-(amino-imino-methyl)-piperidin-3-ylmethylcarbamoyl]-2-benzyloxycarbonylamino-propionyl]-butyl-amino]-acetic acid], the affinity at trypsin, expressed as Ki, was 28 µM. For the same molecule, on human thrombin, the Ki turned out to be 0.064 µM and the “q (ratio of the inhibition of trypsin to the inhibition of thrombin)” value came to 438.
Take `CCCCN(CCC(=O)O)C(=O)[C@H](CC(=O)NC[C@@H]1CCCN(C(=N)N)C1)NC(=O)OCc1ccccc1` [Example 4c, 3-[[(S)-3-[(S)-1-(amino-imino-methyl)-piperidin-3-ylmethylcarbamoyl]-2-benzyloxycarbonylamino-propionyl]-butyl-amino]propionic acid]: the Ki on trypsin worked out at 100 µM; on human thrombin it was 0.3 µM. For the same molecule, the “q (ratio of the inhibition of trypsin to the inhibition of thrombin)” value on human thrombin is recorded as 333.
The like results for `CCOC(=O)CN(C(=O)[C@H](CC(=O)NCC1CN(C(=N)N)CCO1)NC(=O)OCc1ccccc1)C1CC1` (stereo partly drawn) [Example 5a, ethyl [[(S)-3-[4-(amino-imino-methyl)-morpholin-2-ylmethylcarbamoyl]-2-benzyloxycarbonylaminopropionyl]-cyclopropyl-amino]-acetate] were, in that order, 231 µM, 8.9 µM and 26.
The like results for `CCCCN(CC(=O)OCC)C(=O)[C@H](CC(=O)NCC1CN(C(=N)N)CCO1)NC(=O)OCc1ccccc1` (stereo partly drawn) [Example 5b, ethyl [[(S)-3-[4-(amino-imino-methyl)-morpholin-2-ylmethylcarbamoyl]-2-benzyloxycarbonylaminopropionyl]-butyl-amino]-acetate] were, in that order, 150 µM, 0.03 µM and 5000.
The like results for `CCOC(=O)CCN(C(=O)[C@H](CC(=O)NCC1CN(C(=N)N)CCO1)NC(=O)OCc1ccccc1)C1CC1` (stereo partly drawn) [Example 5c, ethyl 3-[[(S)-3-[4-(amino-imino-methyl)-morpholin-2-ylmethylcarbamoyl]-2-benzyloxycarbonylamino-propionyl]-cyclopropyl-amino]-propionate] were, in that order, 29 µM, 0.054 µM and 537.
On trypsin, `CCCCN(CCC(=O)OCC)C(=O)[C@H](CC(=O)NCC1CN(C(=N)N)CCO1)NC(=O)OCc1ccccc1` (stereo partly drawn) [Example 5d, ethyl 3-[[(S)-3-[4-(amino-imino-methyl)-morpholin-2-ylmethylcarbamoyl]-2-benzyloxycarbonylaminopropionyl]-butyl-amino]-propionate] showed a Ki of 12 µM. Also, on human thrombin, the inhibition constant Ki stood at 0.13 µM and the “q (ratio of the inhibition of trypsin to the inhibition of thrombin)” value was found to be 92.
`N=C(N)N1CCOC(CNC(=O)C[C@H](NC(=O)OCc2ccccc2)C(=O)N(CC(=O)O)C2CC2)C1` (stereo partly drawn) [Example 6a]: on human thrombin, affinity was put at a Ki of 0.45 µM and the “q (ratio of the inhibition of trypsin to the inhibition of thrombin)” value turned out to be 311.
In the case of `CCCCN(CC(=O)O)C(=O)[C@H](CC(=O)NCC1CN(C(=N)N)CCO1)NC(=O)OCc1ccccc1` (stereo partly drawn) [Example 6b, [[(S)-3-[4-(amino-imino-methyl)-morpholin-2-ylmethylcarbamoyl]-2-benzyloxycarbonylamino-propionyl]-butyl-amino]-acetic acid], the Ki at trypsin came out at 65 µM; on human thrombin it was 0.0035 µM. In addition, the “q (ratio of the inhibition of trypsin to the inhibition of thrombin)” value at human thrombin stood at 18571.
Consider `N=C(N)N1CCOC(CNC(=O)C[C@H](NC(=O)OCc2ccccc2)C(=O)N(CCC(=O)O)C2CC2)C1` (stereo partly drawn) [Example 6c, 3-[[(S)-3-[4-(amino-imino-methyl)-morpholin-2-ylmethylcarbamoyl]-2-benzyloxycarbonylamino-propionyl]-cyclopropyl-amino]propionic acid], for which the Ki at trypsin came to 92 µM. At human thrombin, the Ki came out at 0.33 µM and the “q (ratio of the inhibition of trypsin to the inhibition of thrombin)” value worked out at 279.
The like results for `CCCCN(CCC(=O)O)C(=O)[C@H](CC(=O)NCC1CN(C(=N)N)CCO1)NC(=O)OCc1ccccc1` (stereo partly drawn) [Example 6d, 3-[[(S)-3-[4-(amino-imino-methyl)-morpholin-2-ylmethylcarbamoyl]-2-benzyloxycarbonylamino-propionyl]-butyl-amino]propionic acid] were, in that order, 85 µM, 0.94 µM and 90.
The like results for `CCOC(=O)CN(C(=O)[C@H](CC(=O)NC[C@@H]1CCCN(C(=N)N)C1)NC(=O)OCC1CCCCC1)C1CC1` [Example 7, ethyl [[(S)-3-[(S)-1-(amino-imino-methyl)-piperidin-3-ylmethylcarbamoyl]-2-cyciohexylmethoxycarbonylamino-propionyl]-cyclopropyl-amino]-acetate] were, in that order, 50 µM, 2 µM and 25.
The like results for `N=C(N)N1CCC[C@@H](CNC(=O)C[C@H](NC(=O)OCC2CCCCC2)C(=O)N(CC(=O)O)C2CC2)C1` [Example 8, [[(S)-3-[(S)-1-(Amino-imino-methyl)-piperidin-3-ylmethylcarbamoyl]-2-cyclohexylmethoxycarbonylamino-propionyl]cyclopropyl-amino]-acetic acid] were, in that order, 27 µM, 0.017 µM and 1588.
Regarding `N=C(N)N1CCC[C@@H](CNC(=O)C[C@H](NC(=O)CSc2ncccn2)C(=O)N(CCNC(=O)c2cnccn2)C2CC2)C1` [Example 20, (S)-N4-[(S)-1-(amino-imino-methyl)-piperidin-3-ylmethyl]-N1-cyclopropyl-N1-(2-pyrazin-2-ylcarbonylamino-ethyl)-2-pyrimidin-2-ylsulphanylacetylamino-succinamide], at human thrombin, the Ki is 0.00086 µM and the “q (ratio of the inhibition of trypsin to the inhibition of thrombin)” value was found to be 5233.
For the molecule `N=C(N)N1CCC[C@@H](CNC(=O)C[C@H](NC(=O)COc2ccccc2)C(=O)N(CCNC(=O)c2cnccn2)C2CC2)C1` [Example 21d, N4-[(S)-1-(amino-imino-methyl)-piperidin-3-ylmethyl]N1-cyclopropyl-2-phenoxyacetylamino-N1-(2-pyrazin-2-ylcarbonylamino-ethyl)-succinamide], on human thrombin, the affinity corresponds to a Ki of 0.0013 µM and the “q (ratio of the inhibition of trypsin to the inhibition of thrombin)” value was 19231.
